We go through three compounds from US20250057958A1, “CYTOTOXICITY TARGETING CHIMERAS FOR CCR2-EXPRESSING CELLS” (GLAXOSMITHKLINE INTELLECTUAL PROPERTY DEVELOPMENT LIMITED, priority 2022, published 2025).

Each structure is given as a SMILES string. pIC50: −log10 of the molar value.

Assay [1] addresses human alpha1 nicotinic acetylcholine (nACh) receptor (Homo sapiens, UniProt P02708+Q07001). Put plainly: Nicotinic acetylcholine receptor antagonism assay (IONFlux automated patch clamp). The following applies: for Emax at 33.3 µM: maximum percentage antagonism at highest concentration tested, read-out: Maximum Response (%); for pIC50: nAChR antagonism, stimulated with ACh, average if more than one run. The class given is cell-based. The source says:
Cells expressing human alpha1 nicotinic acetylcholine (nACh) receptor (nAChR) were washed and dissociated using Trypsin containing buffer. Cells were then washed and seeded at a density of 3-5 million cells/mL and allowed to grow for 3 days. […] The receptor was then stimulated via addition of acetylcholine (ACh) and activation of the receptor was monitored via the IONFlux automated patch clamp system. IonFlux Data Analyzer software was utilized to perform leak subtraction and measure (min) peak current amplitude.
Data processing: (1) Current values recorded for vehicle only applications in individual traps/patterns were subtracted from corresponding current amplitude values for control, test article and control+test article. (2) Control response was calculated as % of the average response of the 3rd out of total 3 ACh (10 mM) applications alone. In rare situations, if the 3rd ACh response was obscured due to technical artifacts, the 2nd and/or 1st ACh (10 mM) application was considered as control. The peak current amplitude generated in the presence of each test article concentration was then used to calculate the % inhibition as compared to control response (10 mM ACh alone). These estimates were further corrected for vehicle response and run down corrected by normalizing with time matched control responses (10 mM ACh alone). The corrected percentages were then fit with a non-linear function in GraphPad Prism 6 (or later versions) to determine the IC50.
Exclusion criteria: (i) any n's with poor recording quality, (ii) control current amplitude <500 pA or (iii) significant outliers, as determined by the Grubbs' test.
ARMs compounds of Formula (I) of the invention were tested for antagonism of the nAChR in the above assay in […] experimental runs and the results are shown in Table 5 below. Antagonistic activity of the compounds of Formula (I) of the invention is reported as an IC50 value (half maximal inhibitory concentration) and the maximum percentage antagonism observed at the highest concentration of compound of Formula (I) tested, as indicated in Table 5. For compounds tested in more than one experimental run, the IC50 value is reported as an average.

The test system of assay [2] is CCR2 expressing cells (CD11b+Ly6c+Hi monocytes). Kind of assay: In vivo depletion assay (flow cytometry of peripheral blood). The arrangement: species or system human CCR2 (hCCR2) knock-in mice. The following applies: IV bolus 0.1 mpk compound + 10 mpk anti-cotinine antibody (mouse IgG2a Fc), 48 hours. The procedure: Human CCR2 (hCCR2) knock-in mice (C57 background) were dosed intravenously with a PBS solution containing a compound of Formula (I) to measure depletion of CCR2 expressing cells in peripheral blood. Peripheral blood from IV dosed mice was also analyzed to determine PK properties of the compounds of Formula (I).
Formulations preparation: On the day of experiment, the stock solution of the compound of Formula (I) was removed from storage at −20° C. and thawed at room temperature. Anti-cotinine antibody having a heavy chain sequence of SEQ ID NO: 13 and a light chain sequence of SEQ ID NO: 14 (rabbit variable region sequence with mouse IgG2a Fc domain), if required was removed from storage at −80° C. and thawed at room temperature. Antibody vials were immediately transferred into wet ice after thawing. Compounds of Formula (I) were further diluted in DMSO as per experimental requirements.
Formulation composition: The formulation composition was Saline: DMSO: PBS. Saline was added based on the quantity required and then stock solution of the compound of Formula (1) prepared in DMSO, followed by addition of antibody in PBS. Formulations were incubated at room temperature for 30 minutes before administration to the mouse. DMSO was used at 1 to 2% (v/v) in the final formulation.
Administration to Animal: Solution formulation of antibody and compound of Formula (I) was injected (bolus injection) to the restrained mouse in the right/left lateral tail vein. Animals were dosed with 0.1 milligram per kilogram (mpk) of the compound of Formula (I) and 10 mpk of the anti-cotinine antibody.
Terminal bleeding at end of experiment (48 hr): Approximately 250 μL of blood in K2EDTA tube and approximately 250 μL of blood in SST (serum separation tube) was collected from each mouse through retro-orbital bleeding under deep isoflurane anesthesia. After bleeding, each mouse was sacrificed by cervical dislocation. The blood distribution at termination was determined as follows: • For PK: 50 μL of K2EDTA blood was transferred to another tube for PK • Flow cytometry: Remaining blood (˜200 μL) was used for flow cytometry analysis. • For serum collection: serum separator tubes (BD) were centrifuged at 4° C., 5000 rpm for 15 minutes. Approximately 100 μL serum was separated and stored at −80° C. for further usage. • Blood drug concentration: Samples collected at the various timepoints (0.25 hr, 2 hr, 24 and 48 hr) were analyzed to determine blood drug concentration.
Flow cytometry analysis: CCR2 depletion in peripheral blood was determined by flow cytometry. Briefly, peripheral blood was collected from all animals at the end of study termination and processed. […]
Percent depletion of CD11b+Ly6c+Hi cells and CCR2 expression for the different treatment groups was determined. […]
For orientation: A flow cytometer gives signals particle by particle.

Sequence of human alpha1 nicotinic acetylcholine (nACh) receptor (P02708 21-457): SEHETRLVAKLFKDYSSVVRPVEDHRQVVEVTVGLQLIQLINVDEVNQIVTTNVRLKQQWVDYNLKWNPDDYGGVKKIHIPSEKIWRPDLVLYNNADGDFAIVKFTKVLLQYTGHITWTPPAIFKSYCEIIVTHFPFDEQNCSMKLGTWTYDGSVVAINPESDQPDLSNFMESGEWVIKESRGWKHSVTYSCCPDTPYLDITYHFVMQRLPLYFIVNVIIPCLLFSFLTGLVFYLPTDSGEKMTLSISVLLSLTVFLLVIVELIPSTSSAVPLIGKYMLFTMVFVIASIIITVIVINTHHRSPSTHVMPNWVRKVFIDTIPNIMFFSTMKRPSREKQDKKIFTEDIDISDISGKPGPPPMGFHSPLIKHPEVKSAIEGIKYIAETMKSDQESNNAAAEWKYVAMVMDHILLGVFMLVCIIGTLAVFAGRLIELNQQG
Sequence of human alpha1 nicotinic acetylcholine (nACh) receptor (P11230 24-501 partner): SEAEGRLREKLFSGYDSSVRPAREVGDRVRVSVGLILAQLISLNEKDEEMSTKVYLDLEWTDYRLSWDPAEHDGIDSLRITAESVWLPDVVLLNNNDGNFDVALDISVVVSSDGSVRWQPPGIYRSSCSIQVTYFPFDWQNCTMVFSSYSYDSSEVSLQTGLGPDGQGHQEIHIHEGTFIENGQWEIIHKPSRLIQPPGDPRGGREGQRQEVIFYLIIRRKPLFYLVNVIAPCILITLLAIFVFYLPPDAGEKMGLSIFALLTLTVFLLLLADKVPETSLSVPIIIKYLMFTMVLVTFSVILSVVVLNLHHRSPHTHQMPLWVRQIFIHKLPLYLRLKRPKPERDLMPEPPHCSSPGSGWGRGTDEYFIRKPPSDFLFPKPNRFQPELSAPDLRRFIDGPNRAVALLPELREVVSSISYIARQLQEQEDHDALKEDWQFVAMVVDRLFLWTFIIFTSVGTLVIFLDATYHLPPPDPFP
Sequence of human alpha1 nicotinic acetylcholine (nACh) receptor (Q07001 22-517): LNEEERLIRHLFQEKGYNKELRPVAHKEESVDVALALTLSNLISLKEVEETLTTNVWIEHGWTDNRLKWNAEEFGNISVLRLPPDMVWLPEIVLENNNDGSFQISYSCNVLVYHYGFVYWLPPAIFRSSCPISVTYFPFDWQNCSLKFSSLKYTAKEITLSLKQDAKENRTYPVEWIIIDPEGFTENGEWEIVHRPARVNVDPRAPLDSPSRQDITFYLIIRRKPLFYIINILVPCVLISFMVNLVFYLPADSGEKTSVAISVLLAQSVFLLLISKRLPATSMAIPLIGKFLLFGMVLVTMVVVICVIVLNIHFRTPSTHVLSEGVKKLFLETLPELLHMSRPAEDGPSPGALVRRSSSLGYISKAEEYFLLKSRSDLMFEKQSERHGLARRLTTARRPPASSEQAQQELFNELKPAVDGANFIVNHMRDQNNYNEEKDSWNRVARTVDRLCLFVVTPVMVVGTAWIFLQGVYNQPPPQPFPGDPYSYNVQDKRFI

Turning to `CC(=O)N[C@@H]1C[C@H](NC(C)(C)C)CC[C@@H]1N1CC[C@H](Nc2nc(CCCCNC(=O)[C@H]3CC[C@H](NC(=O)CCCO[C@H]4CC[C@H](OCCNC(=O)[C@H]5CC(=O)N(C)[C@@H]5c5cccnc5)CC4)CC3)nc3ccc(C(F)(F)F)cc23)C1=O` [Example 3, (2S,3S)-N-(2-(((1R,4S)-4-(4-(((1S,4R)-4-((4-(4-(((S)-1-((1S,2R,4R)-2-Acetamido-4-(tert-butylamino)cyclohexyl)-2-oxopyrrolidin-3-yl)amino)-6-(trifluoromethyl)quinazolin-2-yl)butyl)carbamoyl)cyclohexyl)amino)-4-oxobutoxy)cyclohexyl)oxy)ethyl)-1-methyl-5-oxo-2-(pyridin-3-yl)pyrrolidine-3-carboxamide], in assay [1], the Emax at 33.3 µM was 38% and the negative logarithm of the IC50 (pIC50) (usually the negative decadic logarithm of the IC50, by convention in mol/L) is under 4.48. In assay [2], the “% Depletion of CCR2 expressing cells” value is listed as 84%.

In the case of `CC(=O)N[C@@H]1C[C@H](NC(C)(C)C)CC[C@@H]1N1CC[C@H](Nc2nc([C@H]3CC[C@@H](NC(=O)[C@H]4CC[C@H](NC(=O)CCCO[C@H]5CC[C@H](OCCNC(=O)[C@H]6CC(=O)N(C)[C@@H]6c6cccnc6)CC5)CC4)CC3)nc3ccc(C(F)(F)F)cc23)C1=O` [Example 10, (2S,3S)-N-(2-(((1R,4S)-4-(4-(((1R,4R)-4-(((1R,4S)-4-(4-(((S)-1-((1S,2R,4R)-2-Acetamido-4-(tert-butylamino)cyclohexyl)-2-oxopyrrolidin-3-yl)amino)-6-(trifluoromethyl)quinazolin-2-yl)cyclohexyl)carbamoyl)cyclohexyl)amino)-4-oxobutoxy)cyclohexyl)oxy)ethyl)-1-methyl-5-oxo-2-(pyridin-3-yl)pyrrolidine-3-carboxamide], in assay [1], the Emax at 33.3 µM came to 28% and the pIC50 was under 4.48. Moreover, the “% Depletion of CCR2 expressing cells” value in assay [2] is 89.71%.

Consider `CC(=O)N[C@@H]1C[C@H](NC(C)(C)C)CC[C@@H]1N1CC[C@H](Nc2nc([C@H]3CC[C@H](NC(=O)[C@H]4CC[C@H](NC(=O)CCCO[C@H]5CC[C@H](OCCNC(=O)[C@H]6CC(=O)N(C)[C@@H]6c6cccnc6)CC5)CC4)CC3)nc3ccc(C(F)(F)F)cc23)C1=O` [Example 11, (2S,3S)-N-(2-(((1R,4S)-4-(4-(((1S,4R)-4-(((1S,4R)-4-(4-(((S)-1-((1S,2R,4R)-2-Acetamido-4-(tert-butylamino)cyclohexyl)-2-oxopyrrolidin-3-yl)amino)-6-(trifluoromethyl)quinazolin-2-yl)cyclohexyl)carbamoyl)cyclohexyl)amino)-4-oxobutoxy)cyclohexyl)oxy)ethyl)-1-methyl-5-oxo-2-(pyridin-3-yl)pyrrolidine-3-carboxamide], for which, in assay [1], the Emax at 33.3 µM is 47% and the pIC50 was under 4.48. Besides, the “% Depletion of CCR2 expressing cells” value in assay [2] is 95.41%.
